Data on two molecules can be found in patent publication US20230416291A1, “HIGH-PURITY ß-NICOTINAMIDE MONONUCLEOTIDE (NMN) AND METHOD FOR PRODUCING SAME” (MIRAILAB BIOSCIENCE INC., priority 2020, published 2023).

Series [1] in a line: Stability test on NMN produced by a conventional method (Comparative Examples). In kind it is physicochemical. From the text:
Results of a stability test on NMN produced by a conventional method (method involving neither the step IV nor the step V according to the present invention) are shown as Comparative Examples in Table 2.

The nature of series [2]: Stability of high-purity βNMN on preservation, purity by LC-UV area normalization. In kind it is physicochemical. The settings on record: for Purity, Average value: three samples. On the procedure:
In the area normalization method based on LC-UV, a NMN sample is dissolved in an appropriate amount of water and subjected to LC-UV measurement at a detection wavelength of 266 nm using an apparatus, for example, LC-30AD (manufactured by Shimadzu Corp.). The ratio (%) of the area of the main component to the total area of chromatogram peaks of the obtained sample can be regarded as the purity (%) of βNMN. In the area normalization method based on LC-UV, the high-purity βNMN obtained in the section (5) was dissolved in an appropriate amount of water and subjected to LC-UV measurement under the following conditions. • Apparatus name: LC-30AD (manufactured by Shimadzu Corp.) • Detection wavelength: 266 nm The ratio (%) of the area of the main component to the total area of chromatogram peaks of the obtained sample was regarded as the purity (%) of βNMN. As a result, the purity of the high-purity βNMN obtained in the section (5) was 99.2%. The high-purity βNMN obtained in the section (5) was preserved at 4° C., 25° C., or 40° C. and examined for its stability. Each sample was provided as three samples per condition. The purity of βNMN in each sample during preservation, 1 month later, 2 months later, and 3 months later was measured by the area normalization method based on LC-UV.

Where only a bound is given, the exact number is not on record here.

With `NC(=O)c1ccc[n+]([C@@H]2O[C@H](COP(=O)([O-])O)[C@@H](O)[C@H]2O)c1` [NMN produced by a conventional method, nicotinamide mononucleotide], the Purity in series [1] (4° C., 1 day later) turned out to be 97.92%; in series [1] (4° C., 2 days later), 97.78%; in series [1] (4° C., 3 days later), 97.60%; in series [1] (4° C., 7 days later), 97.57%; in series [1] (4° C., 15 days later), 97.54%; in series [1] (4° C., 30 days later), 97.26%. Moreover, the Purity in series [1] (4° C., At start of preservation) was determined as 97.94%; in series [1] (25° C., 1 day later), 97.11%; in series [1] (25° C., 2 days later), 96.04%; in series [1] (25° C., 3 days later), 95.98%; in series [1] (25° C., 7 days later) it was 90.55%; in series [1] (25° C., 15 days later), 81.74%. Moreover, the Purity in series [1] (25° C., 30 days later) is listed as 65.66%; in series [1] (25° C., At start of preservation), 97.94%. Also, the Stability in words entry in series [1] (preserved at 4° C. for 30 days) is reported as “able to maintain the purity obtained at the start of preservation for 30 days”.

In the case of `NC(=O)c1ccc[n+]([C@@H]2O[C@H](COP(=O)([O-])O)[C@@H](O)[C@H]2O)c1` [high-purity βNMN, β-nicotinamide mononucleotide], the “Purity maintained on preservation” value in series [2] (for 3 months at any temperature of 4° C., 25° C., and 40° C.) is recorded as not below 99%. Further, the “Purity, Average value” turned out to be 99.64% in series [2] (preserved at 4° C., 1 month later); 99.51% in series [2] (preserved at 4° C., 2 months later); 99.66% in series [2] (preserved at 4° C., 3 months later); 99.69% in series [2] (preserved at 4° C., During preservation); 99.26% in series [2] (preserved at 25° C., 1 month later); 99.45% in series [2] (preserved at 25° C., 2 months later). Moreover, the “Purity, Average value” in series [2] (preserved at 25° C., 3 months later) is recorded as 99.57%; in series [2] (preserved at 25° C., During preservation), 99.69%; in series [2] (preserved at 40° C., 1 month later), 99.51%; in series [2] (preserved at 40° C., 2 months later), 99.27%; in series [2] (preserved at 40° C., 3 months later) it was 99.35%; in series [2] (preserved at 40° C., During preservation), 99.69%.
